# Patent US20220259172A1, “CHEMICAL INHIBITORS OF ID PROTEINS FOR THE TREATMENT OF CANCER AND OTHER DISEASES” (Universität Heidelberg, priority 2019, published 2022)
# Legend:
# [1] = system: Id1; test: Compound screen: BMP4-induced Id1 expression, Western blot; type: cell-based, murine; details: B16-F10 and Ret cells, BMP4 10 ng/ml and compound simultaneously, 24 h, rated relative to CBD
# Protocol: To screen compounds with an inhibitory effect on Id1 and Id3 expression, cells were simultaneously stimulated with BMP4 (10 ng/ml, 315-27, Peprotech) and substances at the indicated concentrations for 24 h. DMSO served as a solvent control. Effects on Id1 and Id3 expression levels were analysed by Western blotting.
# (§1) Western blot analysis was performed using standard methods. The following antibodies were used for protein detection: Id1 (195-14, CalBioreagents), Id3 (17-3, CalBioreagents), β-actin (AC-15, Sigma Aldrich), Vinculin (VIN-11-5, Sigma Aldrich). Protein bands were detected using HRP conjugated secondary antibodies (P0447, P0448, Agilent Technologies) and enhanced chemiluminescence (32106, Thermo Fisher Scientific).
# B16-F10 and Ret melanoma cells were treated with BMP4 to induce Id1 and Id3 expression, and simultaneously treated with each of the compounds individually for a 24 h period.
# [2] = system: Id1; test: Id1 expression in HUVECs, Western blot; type: cell-based, Human
# Protocol: (§2) Human umbilical vein endothelial cells (HUVECs) and lymphatic endothelial cells (LECs) were cultivated in EBM™-2 Endothelial Cell Growth Basal Medium supplemented with EGM™-2 MV Microvascular Endothelial Cell Growth Medium-2 SingleQuots™ Kit (both Lonza, catalogue numbers CC-3156 and CC4176, respectively), hereafter referred to as endothelial cell growth medium. HUVECs and LECs were cultivated in the presence of the indicated concentrations of X6632, or with DMSO as a solvent control. After 24 hours, cells were harvested. Lysates were western blotted and probed with antibodies against Id1 and Id3. Western blots probed with vinculin antibodies served as loading controls.
# as §1
# (§3) The effect of X6632 on Id1 and Id3 expression in cultivated proliferating human umbilical vein endothelial cells (HUVECs) was investigated. […] LDN-193189, an antagonist of BMP receptor isotypes ALK2 and ALK3, served as a positive control reference for inhibition of Id1 and Id3 expression.
# [3] = system: Id3; test: Id3 expression in HUVECs, Western blot; type: cell-based, Human
# Protocol: as §2, §1, §3
# [4] = system: Id3; test: Id3 expression in LECs, Western blot; type: cell-based; details: indicated concentrations, 24 hours (FIG. 10B)
# Protocol: as §2, §1, §3
# [5] = system: LECs; test: LEC proliferation, CyQUANT assay; type: cell-based; details: dose-dependent manner (FIG. 11)
# Protocol: HUVECs (A) and LECs (B) were cultivated in endothelial cell growth medium. Cells were incubated with the indicated concentrations of X6632. Incubation with DMSO served as a solvent control. After cultivation for the indicated time periods, cells were stained with a CyQUANT™ Cell Proliferation Assay Kit (Thermo Fisher Scientific). The CyQUANT™ dye emits fluorescence after excitation at 485 nm when incorporated in double-stranded DNA, allowing DNA content to be used as a measure of cell numbers. Plates were incubated for 15 min at 37° C. to allow the CyQUANT™ dye to incorporate into DNA. Fluorescence was measured by excitation at 485 nm and detection of emission at 530 nm at 25 positions in each well (signal intensity) using a Tecan Infinite M200 reader.
# [6] = system: HUVEC spheroids; test: Sprouting from HUVEC spheroids in collagen; type: cell-based, Human; details: X6632 10 μM; 50 ng/ml hVEGF-A; 24 h; collagen type I
# Protocol: (§4) HUVECs or LECs were resuspended in endothelial cell growth medium containing 20% methylcellulose at 1.6×10^4 cells per millilitre. Twenty-five microliters of cell suspension were pipetted as drops on non-adherent plastic plates, which were then inverted to form hanging drop cultures. Plates were incubated for 24 h at 37° C. Spheroids were harvested, then embedded in collagen type I (2 mg/ml) containing 0.5% methylcellulose. After polymerization, gels were cultivated with endothelial cell growth medium containing 50 ng/ml hVEGF-A in the presence or absence of X6632 (10 μM), or DMSO as a solvent control. Sprouting was assessed after cultivation for 24 h using microscope-based image acquisition. Representative images are shown.
# (§5) To determine whether this is the case, the impact of […] on angiogenic and lymphangiogenic sprouting from endothelial cell spheriods was investigated. To this end, HUVECs and LECs were grown as spheriods in hanging drop cultures. The spheroids were then embedded in collagen. Sprouting from the spheroids in the presence and absence of X6632 was monitored using microscope-based image analysis.
# [7] = system: LEC spheroids; test: Sprouting from LEC spheroids in collagen; type: cell-based; details: X6632 10 μM; 50 ng/ml hVEGF-A; 24 h; collagen type I
# Protocol: as §4, §5
# [8] = HUVECs, indicated concentrations, 24 hours (FIG. 10B)
# [9] = proliferating HUVECs, 24 hours (FIG. 10A)
smiles,measurement,setting,value
"CCCCc1cc2c(O)cc(C3(CCCC)CCCCC3)cc2oc1=O [X6632, 7-(1-Butylcyclohexyl)-5-hydroxy-3-butyl-2H-chromen-2-one]",Inhibitory effect on Id1 protein expression,[1],more potent
same,Inhibitory effect on Id1 protein expression,[1]; listed as X 6632,strongest inhibitory activities
same,Expression of Id1 protein,[2]; [8],inhibits
same,Id1 protein expression,[2]; [9],completely abrogated
same,Expression of Id3 protein,[3]; [8],inhibits
same,Id3 protein expression,[3]; [9],completely abrogated
same,Expression of Id3 protein,[4],inhibits
same,Proliferation of LECs,[5],inhibited
same,Sprouting from HUVEC spheroids,[6],substantially inhibited
same,Sprouting from LEC spheroids,[7],substantially inhibited
